# Assay results published in patent US12338237B2, “Derivatives having 1,2,3,4-tetrahydronaphthalene moiety or pharmaceutically acceptable salt thereof and pharmaceutical compositions comprising the same” (YUHAN CORPORATION, priority 2019, dated 2025).
# Read-outs that look alike come from different tables or passages of the source.
# How the values were obtained:
# [1] = target: glucosylceramide synthase (GCS) (Homo sapiens (Human), UniProt Q16739); assay: Evaluation of inhibitory activities against GCS (enzyme reaction with A549 cell lysate, NBD C6-ceramide, HPLC fluorescence); assay type: biochemical; conditions: GCS activity in A549 cell lysate, 37° C. for 90 minutes
# Method: Ibiglustat, known as a GCS inhibitor, was used as a control.
# After the cells attached to the culture dish were washed with phosphate buffered saline (PBS), the cells were scraped off with a cell scraper and then centrifuged (4000 rpm, 3 min, 4° C.) to collect the cells in a 50 ml tube. The cell pellets were suspended in a lysis buffer (50 mM HEPES, pH 7.3, containing 1× the protease/phosphatase inhibitor cocktail), lysed by sonication, and then the lysate was centrifuged (13000 rpm, 10 min, 4° C.). The obtained supernatant was used for the quantitative analysis of proteins. The amount of proteins was measured using the BCA protein assay kit, using bovine serum albumin as a standard.
# Enzymatic reactions were initiated by sequentially adding the following reaction materials to a 96 deep-well plate. Thereafter, the enzymatic reactions were performed at 37° C. for 90 minutes.
# The enzymatic reactions were stopped by adding 100 μl of chloroform/methanol (2:1, v/v). After vortexing for 15 seconds, each mixture was centrifuged (4000 rpm, 10 min, 18° C.). The lower layer (50 μl) was transferred to a new 96 deep-well plate and dried with a reduced concentrator.
# Data analysis was performed by the following equations. % Area (Sample)=Area (GlcCer)/[Area (Cer)+Area (GlcCer)]×100 % GCS activity=[Area(Sample)−Area(ibiglustat)]/[Area(DMSO)−Area(ibiglustat)]×100
# GM1 production = assay: cells; assay type: cell-based
# Sequence of glucosylceramide synthase (GCS) (Q16739 whole entry, looked up): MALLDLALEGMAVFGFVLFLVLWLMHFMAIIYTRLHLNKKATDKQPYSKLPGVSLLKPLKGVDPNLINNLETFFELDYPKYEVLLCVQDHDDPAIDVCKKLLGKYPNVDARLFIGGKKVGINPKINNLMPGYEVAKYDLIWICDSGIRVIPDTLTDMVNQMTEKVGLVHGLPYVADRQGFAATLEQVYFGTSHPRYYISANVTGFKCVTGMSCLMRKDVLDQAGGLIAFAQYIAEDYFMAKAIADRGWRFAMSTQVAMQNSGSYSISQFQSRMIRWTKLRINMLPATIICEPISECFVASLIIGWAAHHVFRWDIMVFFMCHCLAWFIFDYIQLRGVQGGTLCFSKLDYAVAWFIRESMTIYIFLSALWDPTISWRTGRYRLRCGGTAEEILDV
SMILES,IC50 [1],"IC50 (GM1 production; Homo sapiens, Jurkat, 72 h)",IC50 (GM1 production; read-out: IC50)
"O=C(NC1CCCc2cc(-c3ccc(N4CCOCC4)cc3)ccc21)O[C@@H]1CN2CCC1CC2 (stereo partly drawn) [Example 45, (S)-quinuclidin-3-yl (6-(4-morpholinophenyl)-1,2,3,4-tetrahydronaphthalen-1-yl)carbamate]",21.3 nM,152 nM,
"COc1ccc(-c2ccc3c(c2)CCCC3NC(=O)O[C@@H]2CN3CCC2CC3)cc1 (stereo partly drawn) [Example 46, (S)-quinuclidin-3-yl (6-(4-methoxyphenyl)-1,2,3,4-tetrahydronaphthalen-1-yl)carbamate]",13 nM,216 nM,
"COc1cccc(-c2ccc3c(c2)CCCC3NC(=O)O[C@@H]2CN3CCC2CC3)c1 (stereo partly drawn) [Example 47, (S)-quinuclidin-3-yl (6-(3-methoxyphenyl)-1,2,3,4-tetrahydronaphthalen-1-yl)carbamate]",2.52 nM,433 nM,
"COc1ccccc1-c1ccc2c(c1)CCCC2NC(=O)O[C@@H]1CN2CCC1CC2 (stereo partly drawn) [Example 48, (S)-quinuclidin-3-yl (6-(2-methoxyphenyl)-1,2,3,4-tetrahydronaphthalen-1-yl)carbamate]",3.02 nM,362 nM,
"O=C(NC1CCCc2cc(-c3ccncc3F)ccc21)O[C@@H]1CN2CCC1CC2 (stereo partly drawn) [Example 49, (S)-quinuclidin-3-yl (6-(3-fluoropyridin-4-yl)-1,2,3,4-tetrahydronaphthalen-1-yl)carbamate]",35 nM,412 nM,
"Cc1cc(-c2ccc3c(c2)CCCC3NC(=O)O[C@@H]2CN3CCC2CC3)ccn1 (stereo partly drawn) [Example 50, (S)-quinuclidin-3-yl (6-(2-methylpyridin-4-yl)-1,2,3,4-tetrahydronaphthalen-1-yl)carbamate]",33.5 nM,2190 nM,
"COc1cc(-c2ccc3c(c2)CCCC3NC(=O)O[C@@H]2CN3CCC2CC3)ccn1 (stereo partly drawn) [Example 51, (S)-quinuclidin-3-yl (6-(2-methoxypyridin-4-yl)-1,2,3,4-tetrahydronaphthalen-1-yl)carbamate]",9.42 nM,426 nM,
"O=C(NC1CCCc2cc(-c3cnc4[nH]ccc4c3)ccc21)O[C@@H]1CN2CCC1CC2 (stereo partly drawn) [Example 52, (S)-quinuclidin-3-yl (6-(1H-pyrrolo[2,3-b]pyridin-5-yl)-1,2,3,4-tetrahydronaphthalen-1-yl)carbamate]",31.8 nM,22.7 nM,
"O=C(NC1CCCc2cc(-c3cncnc3)ccc21)O[C@@H]1CN2CCC1CC2 (stereo partly drawn) [Example 53, (S)-quinuclidin-3-yl (6-(pyrimidin-5-yl)-1,2,3,4-tetrahydronaphthalen-1-yl)carbamate]",86.4 nM,314 nM,
"O=C(NC1CCCc2cc(-c3ccnc4[nH]ccc34)ccc21)O[C@@H]1CN2CCC1CC2 (stereo partly drawn) [Example 54, (S)-quinuclidin-3-yl (6-(1H-pyrrolo[2,3-b]pyridin-4-yl)-1,2,3,4-tetrahydronaphthalen-1-yl)carbamate]",61.8 nM,216 nM,
"O=C(NC1CCCc2ccc(-c3ccc(F)cc3)cc21)O[C@@H]1CN2CCC1CC2 (stereo partly drawn) [Example 55, (S)-quinuclidin-3-yl (7-(4-fluorophenyl)-1,2,3,4-tetrahydronaphthalen-1-yl)carbamate]",34.1 nM,110 nM,
"Cc1ccc(-c2ccc3c(c2)C(NC(=O)O[C@@H]2CN4CCC2CC4)CCC3)cc1 (stereo partly drawn) [Example 57, (S)-quinuclidin-3-yl (7-(p-tolyl)-1,2,3,4-tetrahydronaphthalen-1-yl)carbamate]",23.4 nM,81.2 nM,
O=C(NC1CCCc2ccc(-c3cccc(F)c3)cc21)O[C@@H]1CN2CCC1CC2 (stereo partly drawn) [Example 58],10.8 nM,,73.5 nM
O=C(NC1CCCc2ccc(-c3ccccc3F)cc21)O[C@@H]1CN2CCC1CC2 (stereo partly drawn) [Example 61],8.48 nM,,61.9 nM
"O=C(NC1CCCc2ccc(-c3ccccc3Cl)cc21)O[C@@H]1CN2CCC1CC2 (stereo partly drawn) [Example 62, (S)-quinuclidin-3-yl (7-(2-chlorophenyl)-1,2,3,4-tetrahydronaphthalen-1-yl)carbamate]",7.37 nM,49.2 nM,
"O=C(NC1CCCc2ccc(-c3ccccc3C(F)(F)F)cc21)O[C@@H]1CN2CCC1CC2 (stereo partly drawn) [Example 63, (S)-quinuclidin-3-yl (7-(2-(trifluoromethyl)phenyl)-1,2,3,4-tetrahydronaphthalen-1-yl)carbamate]",6.7 nM,41.8 nM,
"O=C(NC1CCCc2ccc(-c3ccc(F)c(F)c3)cc21)O[C@@H]1CN2CCC1CC2 (stereo partly drawn) [Example 64, (S)-quinuclidin-3-yl (7-(3,4-difluorophenyl)-1,2,3,4-tetrahydronaphthalen-1-yl)carbamate]",13 nM,131 nM,
"O=C(NC1CCCc2ccc(-c3ccc(F)cc3F)cc21)O[C@@H]1CN2CCC1CC2 (stereo partly drawn) [Example 65, (S)-quinuclidin-3-yl (7-(2,4-difluorophenyl)-1,2,3,4-tetrahydronaphthalen-1-yl)carbamate]",14.2 nM,95.5 nM,
"O=C(NC1CCCc2ccc(-c3cc(F)c(F)cc3F)cc21)O[C@@H]1CN2CCC1CC2 (stereo partly drawn) [Example 66, (S)-quinuclidin-3-yl (7-(2,4,5-trifluorophenyl)-1,2,3,4-tetrahydronaphthalen-1-yl)carbamate]",46.9 nM,102 nM,
"O=C(NC1CCCc2ccc(-c3cc(F)ccc3F)cc21)O[C@@H]1CN2CCC1CC2 (stereo partly drawn) [Example 67, (S)-quinuclidin-3-yl (7-(2,5-difluorophenyl)-1,2,3,4-tetrahydronaphthalen-1-yl)carbamate]",7.3 nM,38.3 nM,
"O=C(NC1CCCc2ccc(-c3cc(F)cc(F)c3)cc21)O[C@@H]1CN2CCC1CC2 (stereo partly drawn) [Example 68, (S)-quinuclidin-3-yl (7-(3,5-difluorophenyl)-1,2,3,4-tetrahydronaphthalen-1-yl)carbamate]",63.5 nM,276 nM,
"O=C(NC1CCCc2ccc(-c3ccc(F)c(F)c3F)cc21)O[C@@H]1CN2CCC1CC2 (stereo partly drawn) [Example 69, (S)-quinuclidin-3-yl (7-(2,3,4-trifluorophenyl)-1,2,3,4-tetrahydronaphthalen-1-yl)carbamate]",40.5 nM,220 nM,
"O=C(NC1CCCc2ccc(-c3ccc(Cl)c(Cl)c3)cc21)O[C@@H]1CN2CCC1CC2 (stereo partly drawn) [Example 70, (S)-quinuclidin-3-yl (7-(3,4-dichlorophenyl)-1,2,3,4-tetrahydronaphthalen-1-yl)carbamate]",83.9 nM,133 nM,
"O=C(NC1CCCc2ccc(-c3cc(Cl)ccc3Cl)cc21)O[C@@H]1CN2CCC1CC2 (stereo partly drawn) [Example 71, (S)-quinuclidin-3-yl (7-(2,5-dichlorophenyl)-1,2,3,4-tetrahydronaphthalen-1-yl)carbamate]",22.8 nM,95.4 nM,
"O=C(NC1CCCc2ccc(-c3ccncc3)cc21)O[C@@H]1CN2CCC1CC2 (stereo partly drawn) [Example 72, (S)-quinuclidin-3-yl (7-(pyridin-4-yl)-1,2,3,4-tetrahydronaphthalen-1-yl)carbamate]",66 nM,116 nM,
"O=C(NC1CCCc2ccc(-c3cccnc3)cc21)O[C@@H]1CN2CCC1CC2 (stereo partly drawn) [Example 73, (S)-quinuclidin-3-yl (7-(pyridin-3-yl)-1,2,3,4-tetrahydronaphthalen-1-yl)carbamate]",359 nM,587 nM,
"Cc1ccccc1-c1ccc2c(c1)C(NC(=O)O[C@@H]1CN3CCC1CC3)CCC2 (stereo partly drawn) [Example 74, (S)-quinuclidin-3-yl (7-(o-tolyl)-1,2,3,4-tetrahydronaphthalen-1-yl)carbamate]",14.4 nM,54.4 nM,
